The values below come from patent publication EP0083204A2, “2-Aminophenol derivatives and process for their preparation” (ONO PHARMACEUTICAL CO., LTD., priority 1981, dated 1983).

The structures appear in SMILES notation. Where a name gives a salt, the structure may show the parent alone.

The target of data set [1] is T1, 5-lipoxygenase (Cavia porcellus, UniProt A0A286X958).
T1 construct: The supernate was used as an enzyme throughout this work; from tissue; host or cells: 105,000 x g supernatant of sonicated, casein-elicited guinea pig polymorphonuclear leukocytes
T1 sequence (A0A286X958 1-674): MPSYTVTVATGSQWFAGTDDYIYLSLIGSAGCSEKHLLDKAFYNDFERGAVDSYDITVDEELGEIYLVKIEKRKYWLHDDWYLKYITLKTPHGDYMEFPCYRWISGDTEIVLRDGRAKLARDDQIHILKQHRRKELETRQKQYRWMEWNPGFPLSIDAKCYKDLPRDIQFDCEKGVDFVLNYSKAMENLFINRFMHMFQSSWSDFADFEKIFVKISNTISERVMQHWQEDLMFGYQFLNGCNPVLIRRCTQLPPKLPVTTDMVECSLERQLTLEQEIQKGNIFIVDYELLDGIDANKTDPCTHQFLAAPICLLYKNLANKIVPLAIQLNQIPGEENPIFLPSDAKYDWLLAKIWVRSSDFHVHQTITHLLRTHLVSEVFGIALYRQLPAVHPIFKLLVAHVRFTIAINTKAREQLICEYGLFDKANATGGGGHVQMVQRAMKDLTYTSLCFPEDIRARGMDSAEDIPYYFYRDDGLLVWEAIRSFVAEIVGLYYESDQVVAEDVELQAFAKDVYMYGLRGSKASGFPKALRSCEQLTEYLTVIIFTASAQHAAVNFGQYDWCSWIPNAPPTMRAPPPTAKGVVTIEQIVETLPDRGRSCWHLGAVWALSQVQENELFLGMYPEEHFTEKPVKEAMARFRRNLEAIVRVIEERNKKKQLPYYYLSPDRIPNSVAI
Kind of data set: assay system evaluating only the inhibitory activity on 5-lipoxygenase (105,000 x g supernate of sonicated polymorphonuclear leukocytes). The data set is classed as biochemical. Conditions: supernate of sonicated guinea pig polymorphonuclear leukocytes, 30°C, 5 minutes, 1 mM calcium chloride; production of 5-HETE, 5,12-diHETE and leukotriene B; read-out: concentrations required to produce 50% inhibitions on 5-lipoxygenase. The protocol: The experiments for evaluating only the inhibitory activity on 5-lipoxygenase were carried out as follows: Guinea pig was treated by casein and harvested polymorphonuclear leukocytes from cavity were sonicated, followed by the centrifugation at 105,000 x g. The supernate was used as an enzyme throughout this work. The supernate (100 - 500 ug of protein) was incubated for 5 minutes at 30°C with [^14C] arachidonic acid and 1 mM calcium chloride in the presence or in the absence of test compound. The reaction was terminated by the addition of ether. Ether extract was separated by thin layer chromatography using silica gel plates to observe production of 5-HETE, 5,12-diHETE and leukotriene B. In this assay system, the concentrations for 50% inhibitions on 5- lipoxygenase were evaluated by using the concentrations of compounds of the present invention required 50% inhibitions on the production of 5-HETE, 5,12-diHETE and leukotrien B.

In data set [2] the test system is mice. Description: acute toxicity by intravenous administration. The data set is classed as in vivo, mouse. As to conditions: intravenously administered to tail vein in ten mice at the dose of 30 mg/kg. The protocol: On the other hand, all extent of the compounds of the present invention were confirmed that their acute toxicities were more than 30 mg/kg by intravenous administration. Therefore, 2-aminophenol derivatives of the present invention may be considered to be sufficiently safe and suitable for medical use.

In data set [3] the test system is cyclooxygenase. Kind of data set: standard assay system using polymorphonuclear leukocytes (production of HHT or TXB2 from [14C] arachidonic acid). Type of data set: cell-based. Conditions: intact polymorphonuclear leukocytes from guinea pig, 4 x 10^7 cells, 37°C, 5 minutes, read-out: concentrations for 50% inhibitions on cyclooxygenase. The protocol:
(§1) For example, in standard assay system using polymorphonuclear leukocytes from guinea pig (details of experiments were described hereafter), (a) the concentrations of 2-amino-4-(4-methylphenylthio)phenol hydrochloride for 50% inhibitions on 5-lipoxygenase and on cyclooxygenase were 0.2 µM and 0.3 µM, respectively, (b) the concentrations of 2-amino-4-phenylthiophenol hydrochloride for 50% inhibitions on 5- lipoxygenase and on cyclooxygenase were 0.1 µM and 0.3 uM, respectively and (c) the concentrations of 2-amino-4-(4-chlorophenylthio)phenol hydrochloride for 50% inhibitions on 5-lipoxygenase and on cyclooxygenase were 0.5 µM and 0.3 µM, respectively. Therefore, it is comfirmed that these compounds (a), (b) and (c) inhibit both 5-lipoxygenase and cyclooxygenase at the same time at very low concentrations.
(§2) The experiments for screening using polymorphonuclear leukocytes were carried out as follows: The reaction mixture (0.1 ml) containing 5 µmole of potassium phosphate at pH 7.4, 0.1 µmole of calcium chloride, polymorphonuclear leukocytes prepared from guinea pigs (4 x 10^7 cells) and test compound, was preincubated for 5 minutes at 37°C. The reaction was started by the addition of [^14C] arachidonic acid ([…] dpm, 1.8 nmole), followed by the incubation at 37°C for 5 minutes. The reaction was terminated by the addition of 0.3 ml of a mixture of ether/ methanol/lM citric acid (30/4/1). The organic phase (20 µl) was applied to silica gel plate. Thin layer chromatography was performed to separate each product with solvent system of ether/petroleum ether/acetic acid (85/15/0.1).
(§3) Activity of 5-lipoxygenase and cyclooxygenase were calculated from the measurements of the production of 5-HETE, and 12L-hydroxy-5,8,10-[…] acid (i.e. HHT) or thromboxane B2 (i.e. TXB2), respectively [it has been known that HHT and TXB2 are the last products of the system concerning cyclooxygenase in the arachidonate cascade]. […]

The target in data set [4] is T1, 5-lipoxygenase. Kind of data set: standard assay system using polymorphonuclear leukocytes (production of 5-HETE from [14C] arachidonic acid). The data set is classed as cell-based. Conditions: intact polymorphonuclear leukocytes from guinea pig, 4 x 10^7 cells, 37°C, 5 minutes, read-out: concentrations for 50% inhibitions on 5-lipoxygenase. The method, then:
as §1, §2, §3

With `Cc1cc(C)c(Sc2ccc(O)c(N)c2)c(C)c1` [2-Amino-4-(2,4,6-trimethylphenylthio)phenol hydrochloride], the IC50 in data set [1] stood at 480 nM.

Turning to `Cl.Nc1cc(-c2nc3ccccc3s2)ccc1O` [2-Amino-4-(2-benzothiazolyl)phenol hydrochloride], the mortality entry in data set [2] is listed as “no mouse was dead”. Also, the IC50 in data set [1] stood at 230 nM.

`Nc1cc(Sc2ccc(O)c(N)c2)ccc1O` [2-Amino-4-(3-amino-4-hydroxyphenylthio)phenol]: the IC50 in data set [1] was 1500 nM.

On to `Nc1cc(Sc2ccc(Cl)cc2)ccc1O` [2-Amino-4-(4-chlorophenylthio)phenol hydrochloride], for which the IC50 in data set [3] is 300 nM; in data set [4], 500 nM; in data set [1] it was 300 nM.

As for `Cc1ccc(Sc2ccc(O)c(N)c2)cc1.Cl` [2-Amino-4-(4-methylphenylthio)phenol hydrochloride], the values for the IC50 in data set [3], in data set [4] and in data set [1] were 300 nM, 200 nM and 200 nM, respectively. Besides, the mortality entry in data set [2] is listed as “no mouse was dead”.

In the case of `CC(C)(C)c1ccc(Sc2ccc(O)c(N)c2)cc1` [2-Amino-4-(4-tert-butylphenylthio)phenol hydrochloride], the IC50 in data set [1] is 320 nM.

Consider `Nc1cc(Sc2ccc(O)cc2)ccc1O` [2-amino-4-(4-hydroxyphenylthio)phenol, 2-Amino-4-(4-hydroxyphenylthio)phenol], for which the IC50 in data set [1] worked out at 460 nM.

As to `Nc1cc([S+]([O-])c2ccccc2)ccc1O` (stereo not drawn) [2-amino-4-benzenesulfinylphenol, 2-Amino-4-benzenesulfinylphenol], the IC50 in data set [1] turned out to be 11000 nM.

On to `Nc1cc(C#Cc2ccccc2)ccc1O` [2-amino-4-phenylethynylphenol, 2-Amino-4-phenylethynylphenol], for which, in data set [2], the mortality result is “no mouse was dead”. Also, in data set [1], the IC50 is 690 nM.

As to `Nc1cc(Sc2ccccc2)ccc1O` [2-amino-4-phenylthiophenol hydrochloride, 2-Amino-4-phenylthiophenol hydrochloride], the IC50 in data set [3] amounted to 300 nM; in data set [4], 100 nM; in data set [1] it was 310 nM. For the same compound, the mortality entry in data set [2] is “no mouse was dead”.

Regarding `Nc1cc(NC(=O)c2ccccc2)ccc1O` [N-(3-Amino-4-hydroxyphenyl)benzamide hydrochloride], the IC50 in data set [1] turned out to be 18000 nM.
